In PubChem BioAssay AID256 (DTP/NCI, 2004):
“And” between values parts separate entries of the source, which are not always exact repeats. Identical values can stand only once. Inconclusive results and toxic doses are left out. Rule for the calls: active = survival T/C of 150% or more; inactive = T/C below 125% in these data.

Tested on: CD2F1 mice, L1210 leukemia ip, survival T/C
Assay: NCI In Vivo Anticancer Drug Screen. Data for tumor model L1210 Leukemia (intraperitoneal) in CD2F1 (CDF1) mice
Details: higher = longer survival
Outline: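 Compound-dosed mice with transplantable tumor versus matched vehicle controls; endpoint ratio T/C reported.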

[1] = endpoint: mean survival time, dose: 50.0 mg/kg/injection, schedule: Q01DX009 (ip), vehicle: saline with Tween-80
[2] = endpoint: mean survival time, dose: 100.0 mg/kg/injection, schedule: Q01DX009 (ip), vehicle: saline with Tween-80
[3] = endpoint: mean survival time, dose: 200.0 mg/kg/injection, schedule: Q01DX009 (ip), vehicle: saline with Tween-80
[4] = endpoint: mean survival time, dose: 50.0 mg/kg/injection, schedule: Q04DX003 (ip), vehicle: saline with Tween-80
[5] = endpoint: mean survival time, dose: 100.0 mg/kg/injection, schedule: Q04DX003 (ip), vehicle: saline with Tween-80
[6] = endpoint: mean survival time, dose: 200.0 mg/kg/injection, schedule: Q04DX003 (ip), vehicle: saline with Tween-80
[7] = endpoint: mean survival time, dose: 25.0 mg/kg/injection, schedule: Q04DX003 (ip), vehicle: saline with Tween-80
[8] = endpoint: mean survival time, dose: 400.0 mg/kg/injection, schedule: Q01DX009 (ip), vehicle: saline with Tween-80
[9] = endpoint: mean survival time, dose: 400.0 mg/kg/injection, schedule: Q04DX003 (ip), vehicle: saline with Tween-80
[10] = endpoint: mean survival time, dose: 100.0 mg/kg/injection, schedule: Q01DX001 (ip), vehicle: saline with Tween-80
[11] = endpoint: mean survival time, dose: 100.0 mg/kg/injection, schedule: Q04DX002 (ip), vehicle: saline with Tween-80
[12] = endpoint: mean survival time, dose: 200.0 mg/kg/injection, schedule: Q01DX001 (ip), vehicle: saline with Tween-80
[13] = endpoint: mean survival time, dose: 200.0 mg/kg/injection, schedule: Q04DX002 (ip), vehicle: saline with Tween-80
[14] = endpoint: mean survival time, dose: 400.0 mg/kg/injection, schedule: Q04DX002 (ip), vehicle: saline with Tween-80
[15] = endpoint: mean survival time, dose: 100.0 mg/kg/injection, schedule: Q01DX001 (ip), vehicle: saline
[16] = endpoint: mean survival time, dose: 200.0 mg/kg/injection, schedule: Q01DX001 (ip), vehicle: saline
[17] = endpoint: mean survival time, dose: 400.0 mg/kg/injection, schedule: Q01DX001 (ip), vehicle: saline
[18] = endpoint: mean survival time, dose: 400.0 mg/kg/injection, schedule: Q01DX001 (ip), vehicle: saline with Tween-80

Measured: T/C

c1ccc(CN2CCCCc3ccccc32)cc1
inactive: [1] 100 % of control | [2] 98 % of control | [3] 104 % of control

Nc1ccc(CCc2ccccc2)cc1
inactive: endpoint: mean survival time, dose: 50.0 mg/kg/injection, schedule: Q04DX002 (ip), vehicle: saline with Tween-80 98 % of control and 105 % of control | [4] 104 % of control | [5] 100 % of control and 101 % of control and 107 % of control | [6] 92 % of control and 104 % of control

C=CC[As](=O)(O)c1ccccc1Cl
inactive: endpoint: mean survival time, dose: 6.25 mg/kg/injection, schedule: Q04DX003 (ip), vehicle: saline with Tween-80 98 % of control | endpoint: mean survival time, dose: 12.5 mg/kg/injection, schedule: Q04DX003 (ip), vehicle: saline with Tween-80 105 % of control | [7] 104 % of control

NNC(=O)c1cc2ccccc2cc1O
inactive: [2] 97 % of control | [3] 86 % of control | [8] 94 % of control

CC(NC(=O)CNC(=O)OCc1ccccc1)C(=O)O (stereo not given)
inactive: [5] 98 % of control | [6] 96 % of control | [9] 93 % of control

CCCCCCCCCC(=O)NC(=S)Nc1ccc(C(=O)OCCCC)cc1
inactive: [10] 88 % of control | [2] 103 % of control | [11] 94 % of control and 103 % of control | [5] 90 % of control | [12] 86 % of control | [3] 92 % of control and 98 % of control | [13] 90 % of control and 100 % of control | [6] 93 % of control | [8] 89 % of control and 92 % of control | [14] 90 % of control and 91 % of control | [9] 93 % of control

CCCCCC(O)CCCC (stereo not given)
inactive: [1] 91 % of control | [2] 100 % of control | [3] 106 % of control

COc1ccc(CCNC(=S)NC(=O)c2cc(OC)c(OC)c(OC)c2)cc1OC
inactive: [11] 87 % of control | [13] 97 % of control | [14] 102 % of control

CC(C)(C)SC(=O)C1(C)OC1c1ccc([N+](=O)[O-])cc1 (stereo not given)
inactive: endpoint: mean survival time, dose: 100.0 mg/kg/injection, schedule: Q01DX001 (ip), vehicle: Klucel (hydroxypropylcellulose) (HPC) 97 % of control | endpoint: mean survival time, dose: 200.0 mg/kg/injection, schedule: Q01DX001 (ip), vehicle: Klucel (hydroxypropylcellulose) (HPC) 94 % of control | endpoint: mean survival time, dose: 400.0 mg/kg/injection, schedule: Q01DX001 (ip), vehicle: Klucel (hydroxypropylcellulose) (HPC) 97 % of control

ClCC(CCl)c1nncc2ccccc12
inactive: [15] 94 % of control | [16] 97 % of control | [17] 93 % of control

COC(=O)C1(C(=O)OC)C2C(=O)C3C(C21)C3(C(=O)OC(C)(C)C)C(=O)OC(C)(C)C (stereo not given)
inactive: [2] 96 % of control | [3] 94 % of control | [8] 93 % of control

OC1C2COC(O2)C(O)C1O (stereo not given)
inactive: endpoint: mean survival time, dose: 100.0 mg/kg/injection, schedule: Q01DX009 (ip), vehicle: saline 98 % of control | endpoint: mean survival time, dose: 200.0 mg/kg/injection, schedule: Q01DX009 (ip), vehicle: saline 101 % of control | endpoint: mean survival time, dose: 400.0 mg/kg/injection, schedule: Q01DX009 (ip), vehicle: saline 98 % of control

CC1=CS(=O)(=O)CC(=O)N1
inactive: [5] 103 % of control | [6] 98 % of control | [9] 95 % of control

O=C1c2ccccc2C(=O)N1c1c2ccccc2cc2ccccc12
inactive: [2] 95 % of control | [3] 101 % of control | [8] 90 % of control

CN(C)CCCN=Cc1ccccc1O.CN(C)CCCN=Cc1ccccc1O.[Ni+2]
inactive: endpoint: mean survival time, dose: 6.25 mg/kg/injection, schedule: Q01DX009 (ip), vehicle: saline with Tween-80 100 % of control | endpoint: mean survival time, dose: 12.5 mg/kg/injection, schedule: Q01DX009 (ip), vehicle: saline with Tween-80 101 % of control | endpoint: mean survival time, dose: 25.0 mg/kg/injection, schedule: Q01DX009 (ip), vehicle: saline with Tween-80 89 % of control

CC(=O)OC1CCC2(C)C(=CCC3C4CC(C=O)=C(Cl)NC4(C)CCC32)C1 (stereo not given)
inactive: endpoint: mean survival time, dose: 25.0 mg/kg/injection, schedule: Q01DX001 (ip), vehicle: saline with Tween-80 98 % of control | endpoint: mean survival time, dose: 50.0 mg/kg/injection, schedule: Q01DX001 (ip), vehicle: saline with Tween-80 95 % of control | [10] 92 % of control and 101 % of control | [18] 87 % of control

CC1/C(=N\Nc2ccc([N+](=O)[O-])cc2[N+](=O)[O-])CCC2C1(C)CCC1C2(C)CCC2(C)C3CC(C)(C)CCC3(C)CCC12C (stereo not given)
inactive: [15] 97 % of control | [16] 97 % of control | [17] 97 % of control

C=CS(=O)(=O)c1ccc([N+](=O)[O-])cc1
inactive: endpoint: mean survival time, dose: 25.0 mg/kg/injection, schedule: Q04DX002 (ip), vehicle: saline with Tween-80 88 % of control

O=CN(CCNc1ccccc1)c1ccccc1
inactive: [5] 96 % of control | [6] 101 % of control | [9] 95 % of control

[Cl][Pt+2][Br].[NH-]CC[NH-]
inactive: endpoint: mean survival time, dose: 0.47 mg/kg/injection, schedule: Q01DX009 (ip), vehicle: saline with Tween-80 115 % of control | endpoint: mean survival time, dose: 0.95 mg/kg/injection, schedule: Q01DX009 (ip), vehicle: saline with Tween-80 105 % of control | endpoint: mean survival time, dose: 1.9 mg/kg/injection, schedule: Q01DX009 (ip), vehicle: saline with Tween-80 110 % of control | endpoint: mean survival time, dose: 3.8 mg/kg/injection, schedule: Q04DX003 (ip), vehicle: saline with Tween-80 101 % of control | endpoint: mean survival time, dose: 7.5 mg/kg/injection, schedule: Q01DX009 (ip), vehicle: saline with Tween-80 94 % of control | endpoint: mean survival time, dose: 7.5 mg/kg/injection, schedule: Q04DX003 (ip), vehicle: saline with Tween-80 121 % of control

Cc1ccc(-n2c(=S)[nH]c3ccccc3c2=O)cc1F
inactive: [10] 92 % of control | [2] 88 % of control | [12] 92 % of control | [3] 88 % of control | [18] 89 % of control | [8] 93 % of control

C1CC2N=NC1C21CC1.[Cl][Cu][Cl]
inactive: endpoint: mean survival time, dose: 6.25 mg/kg/injection, schedule: Q04DX002 (ip), vehicle: saline with Tween-80 96 % of control | endpoint: mean survival time, dose: 12.5 mg/kg/injection, schedule: Q04DX002 (ip), vehicle: saline with Tween-80 108 % of control

COC1c2cc3ccccc3nc2-c2ccccc2C1(C)C (stereo not given)
inactive: endpoint: mean survival time, dose: 12.5 mg/kg/injection, schedule: Q01DX009 (ip), vehicle: water 96 % of control | endpoint: mean survival time, dose: 25.0 mg/kg/injection, schedule: Q01DX009 (ip), vehicle: water 96 % of control | endpoint: mean survival time, dose: 50.0 mg/kg/injection, schedule: Q01DX009 (ip), vehicle: water 91 % of control | endpoint: mean survival time, dose: 100.0 mg/kg/injection, schedule: Q01DX009 (ip), vehicle: water 91 % of control | endpoint: mean survival time, dose: 200.0 mg/kg/injection, schedule: Q01DX009 (ip), vehicle: water 90 % of control

CC(C)CCCC(C)C1CCC2C3CC(C(=O)O)C(C)(CCC(=O)O)C3CCC12C (stereo not given)
inactive: endpoint: mean survival time, dose: 75.0 mg/kg/injection, schedule: Q01DX001 (ip), vehicle: other 108 % of control | endpoint: mean survival time, dose: 150.0 mg/kg/injection, schedule: Q01DX001 (ip), vehicle: other 104 % of control

CC(C(=O)c1ccccc1)C(N[N+](C)(C)C)c1ccccc1 (stereo not given)
inactive: [7] 96 % of control

Cc1c2ccn(O)cc2c(C)c2c1nc1ccccc12
inactive: endpoint: mean survival time, dose: 25.0 mg/kg/injection, schedule: Q04DX003 (ip), vehicle: water 110 % of control | endpoint: mean survival time, dose: 50.0 mg/kg/injection, schedule: Q04DX003 (ip), vehicle: water 103 % of control | endpoint: mean survival time, dose: 100.0 mg/kg/injection, schedule: Q04DX003 (ip), vehicle: water 110 % of control | endpoint: mean survival time, dose: 200.0 mg/kg/injection, schedule: Q04DX003 (ip), vehicle: water 105 % of control | endpoint: mean survival time, dose: 400.0 mg/kg/injection, schedule: Q04DX003 (ip), vehicle: water 106 % of control

CCNCc1ccc(OC)cc1
inactive: [7] 106 % of control | [4] 104 % of control | [5] 93 % of control

CC1(O)CC23CC(O)C4(O)C(CC(O)C4(C)C)C(C)(O)C2CCC1C3O (stereo not given)
inactive: endpoint: median survival time, dose: 0.06 mg/kg/injection, schedule: Q01DX009 (ip), vehicle: Klucel (hydroxypropylcellulose) (HPC) 97 % of control | endpoint: median survival time, dose: 0.12 mg/kg/injection, schedule: Q01DX009 (ip), vehicle: Klucel (hydroxypropylcellulose) (HPC) 96 % of control | endpoint: median survival time, dose: 0.25 mg/kg/injection, schedule: Q01DX009 (ip), vehicle: Klucel (hydroxypropylcellulose) (HPC) 102 % of control | endpoint: median survival time, dose: 0.5 mg/kg/injection, schedule: Q01DX009 (ip), vehicle: Klucel (hydroxypropylcellulose) (HPC) 97 % of control

CCOC(=O)C(N=O)C(=O)c1ccccc1 (stereo not given)
inactive: endpoint: mean survival time, dose: 100.0 mg/kg/injection, schedule: Q01DX009 (ip), vehicle: saline sonified 95 % of control | [5] 96 % of control | endpoint: mean survival time, dose: 200.0 mg/kg/injection, schedule: Q01DX009 (ip), vehicle: saline sonified 101 % of control | [6] 95 % of control | endpoint: mean survival time, dose: 400.0 mg/kg/injection, schedule: Q01DX009 (ip), vehicle: saline sonified 92 % of control | [9] 86 % of control
